# Results published in paper PMC12715762, “Discovery of VU6052254: A Novel, Potent M1 Positive Allosteric Modulator” (ACS Chemical Neuroscience, 2025).
# How the values were obtained:
# [1] = predicted hepatic clearance, hepatic microsomes (rat); type: in vitro ADME; settings: rat (r)
# Procedure: After a 5 min preincubation, the reaction was initiated by the addition of NADPH (1 mM). At selected time intervals (0, 3, 7, 15, 25, and 45 min), aliquots were taken and subsequently placed into a 96-well plate containing cold acetonitrile with internal standard (50 ng/mL carbamazepine). Plates were then centrifuged at 3000 rcf (4 °C) for 10 min, and the supernatant was transferred to a separate 96-well plate and diluted 1:1 with water for LC/MS/MS analysis. The in vitro half-life ( 1/2, min, Eq. 1), intrinsic clearance (CLint, mL/min/kg, Eq. 2), and subsequent predicted hepatic clearance (CLhep, mL/min/kg, Eq. 3) was determined employing the […]
# where k represents the slope from linear regression analysis of the natural log percent remaining of a test compound as a function of incubation time […]
# (2) CLint = in vitroT x mg microsomes x gram liver x kg body wt ascale-up factors: of 20 (human) or 45 (rat) […]
# where Qh (hepatic blood flow, mL/min/kg) is 21 (human) or 70 (rat).
# LC/MS/MS Bioanalysis of Samples from Plasma Protein Binding and Intrinsic Clearance […]
# Samples were analyzed on a Thermo Electron TSQ Quantum Ultra triple quad mass spectrometer (San Jose, CA) via electrospray ionization (ESI) with two Themo Electron Accella pumps (San Jose, CA), and a Leap Technologies CTC PAL autosampler (Carrboro, NC). […]
# [2] = target: T1, mM1 (Mus musculus, UniProt P12657); experiment: M1 PAM calcium mobilization assay (mouse); type: cell-based; settings: mouse M1, n = 1
# T1 construct: expressed in transfected cells
# T1 sequence (P12657 1-460): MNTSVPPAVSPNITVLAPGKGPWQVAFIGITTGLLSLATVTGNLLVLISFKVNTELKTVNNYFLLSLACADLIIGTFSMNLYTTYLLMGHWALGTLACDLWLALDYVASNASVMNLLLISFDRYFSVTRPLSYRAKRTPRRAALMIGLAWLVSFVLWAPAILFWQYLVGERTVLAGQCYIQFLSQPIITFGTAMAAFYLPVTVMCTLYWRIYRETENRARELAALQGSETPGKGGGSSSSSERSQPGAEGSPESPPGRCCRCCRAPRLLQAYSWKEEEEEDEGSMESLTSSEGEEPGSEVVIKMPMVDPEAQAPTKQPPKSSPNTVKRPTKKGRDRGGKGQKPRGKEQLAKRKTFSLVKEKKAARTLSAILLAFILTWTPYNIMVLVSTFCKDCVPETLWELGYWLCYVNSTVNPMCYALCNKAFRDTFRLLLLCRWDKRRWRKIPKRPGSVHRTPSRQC
Compound,Predicted CLhep [1],EC50 [2],"mM1 PAM, percentage in brackets (AChmax) [2]"
"Cn1cc2c(-c3cc(F)c(CN4Cc5ncccc5C4=O)c(F)c3)cccc2n1 [compound 1, reference compound]",5.7 mL/min/kg,728 nM,56%
Cn1cc2c(-c3cc(F)c(CN4Cc5ncccc5C4=O)c(F)c3)ccc(C(C)(C)O)c2n1 [compound 7],35.5 mL/min/kg,80 nM,63%
